Reference: patent publication US20110092488A1, “Quninoline Methanol Compounds for the Treatment and Prevention of Parasitic Infections” (priority 2005, published 2011)
≈ marks a conversion by molar mass, not a printed value.

Tests used:
AMRU1 strain of P. vivax = experiment: Efficacy in P. vivax-challenged Aotus monkeys; format: in vivo, Plasmodium vivax in Aotus lemurinus lemurinus; conditions: oral; for Outcome: Aotus
Experimental: The P. berghei-mouse efficacy data were obtained from the WRAIR chemical information system (subcutaneous testing) or from recent tests conducted at AFRIMS, Thailand or at the University of Miami using a modified version of the Thompson test. Groups of five mice were inoculated through i.p. injection on day 0 (usually with 1×106 P. berghei-parasitized erythrocytes). The drugs in Table 1 were administered either subcutaneously or orally for three days (usually on days 3-5) at doses of 1.25-160 mg/kg in two to four fold increments. Cure was defined as survival until day 60 (subcutaneous dosing) or day 31 post-treatment (oral dosing). […] The minimum effective dose was the lowest dose level that cured at least one of five mice. The Aotus studies were performed according to Obaldia; Detection of Klebsiella pnuumoniae antibodies in Aotus l. lemurinus (Panamanian owl monkey) using an enzyme linked immunosorbent assay (ELIA) test; Lab Anim (25)133-141 (1991) and Obaldia et al., WR 238605, chloroquine, and their combinations as blood schizonticides against a chloroquine-resistant strain of Plasmodium vivax in Aotus monkeys; Am. J. Trop. Med. Hyg. (56)508-510 (1997), which are incorporated by reference, herein. Groups of two Aotus lemurinus 6 lemurinus of the karyotype VIII or IX (27) male and female monkeys with weights ranging from 742-970 g were inoculated with 5×10^6 parasites of either the FVO strain of P. falciparum or the AMRU1 strain of P. vivax. Both of these strains are chloroquine resistant. […] Monkeys were examined and thick Giemsa-stained blood smears were prepared and enumerated daily (17) to monitor the course of infection. […] In some instances, a high dose of the test drug was used to retreat monkeys instead of the mefloquine rescue. Monkeys are considered cured if they are parasite free 90 days post treatment. […] Plasma samples were taken from the monkeys in some studies for quantification of metabolites. Additional blood samples were taken as appropriate for complete blood counts and serum chemistry. Research was conducted in compliance with the Animal Welfare Act and other federal statutes and regulations relating to animals and experiments involving animals and adheres to principles stated in the Guide for the Care and Use of Laboratory Animals, NRC Publication, 1996 edition (34).

P. falciparum W2 = experiment: In vitro antimalarial activity against P. falciparum W2; format: cell-based, Plasmodium falciparum
Experimental: (§1) The in vitro activities of AAQMs against P. falciparum strains W2, D6, TM91C235 and TM90C2A were evaluated using the method of Desjardins et al. as modified by Milhous et al. W2 is chloroquine resistant and mefloquine sensitive, D6 is chloroquine sensitive but naturally less susceptible to mefloquine, TM91C235 is resistant to mefloquine, chloroquine and pyrimethamine as is TM90C2A, however this latter parasite is a two pfmdr1 copy strain. We routinely run mefloquine in this screen as a control to ensure assay validity.

P. falciparum D6 = experiment: In vitro antimalarial activity against P. falciparum D6; format: cell-based, Plasmodium falciparum
Experimental: as §1
The combined effects of azithromycin (as represented by compound 196 on the horizontal axes of FIG. 4 through 6) and WR074086 (as represented by compound 14885 on vertical axes of FIGS. 4 through 6) against three strains of P. falciparum were investigated using isobologram analysis. First, the IC50s of each compound were determined as described above.

P. falciparum TM90C2A = experiment: In vitro antimalarial activity against P. falciparum TM90C2A; format: cell-based, Plasmodium falciparum
Experimental: as §1

[1] = test system: FVO strain of P. falciparum; experiment: Efficacy in P. falciparum-challenged Aotus monkeys; format: in vivo, Plasmodium falciparum in Aotus lemurinus lemurinus
P. falciparum TM91C235 = experiment: In vitro antimalarial activity against P. falciparum TM91C235; format: cell-based, Plasmodium falciparum

CCCCN(CCCC)CC(O)c1cc(-c2ccc(Cl)cc2)nc2cc(Cl)c(C)cc12 (stereo not drawn) [WR069878]
Outcome (AMRU1 strain of P. vivax; 0.625 mg/kg/day x 3 days, primary treatment): Failure | Outcome (AMRU1 strain of P. vivax; 2.5 mg/kg/day x 3 days, primary treatment): Failure | Outcome (AMRU1 strain of P. vivax; 10 mg/kg/day x 3 days, primary treatment, number in brackets = days before recrudescence, 10 mg/kg/day): Clear (7) and Cure | Outcome (AMRU1 strain of P. vivax; 20 mg/kg/day x 1 day, retreatment, one monkey per line, number in brackets = days before recrudescence, 20 mg/kg/day): Cure and Clear (8) | Outcome (AMRU1 strain of P. vivax; 40 mg/kg/day x 3 days, retreatment): Cure | Outcome (AMRU1 strain of P. vivax; 80 mg/kg/day x 1 day, retreatment, number in brackets = days before recrudescence, 80 mg/kg/day): Clear (11) and Cure | Outcome in P. vivax infections (AMRU1 strain of P. vivax; three day regimen): cures P. vivax infections | IC90 against W2 (P. falciparum W2): 0.49 ng/mL (≈ 0.00107 µM) | IC90 against D6 (P. falciparum D6): 5.3 ng/mL (≈ 0.0115 µM) | IC90 against TM90C2A (P. falciparum TM90C2A): 16 ng/mL (≈ 0.0348 µM) | Outcome in Aotus ([1]; 10 mg/kg/day x7 oral, groups of two, Cure = parasite free 90 days, R = average day of recrudescence, Failure = rescued with mefloquine): Cures and Cure | Outcome ([1]; Aotus, oral, 10 mg/kg/day x 7 days, primary treatment): Cure | Activity against P. falciparum TM91C235 (IC50 in ng/ml) (P. falciparum TM91C235): 1.5 ng/mL | TM91C235 IC90 (P. falciparum TM91C235; Table 2): 3.3 ng/mL | IC90 against TM91C235 (P. falciparum TM91C235; text b26): 11.7 ng/mL (≈ 0.0255 µM)
